Measured values from patent US20090192135A1, “Human Niemann Pick C1-Like 1 Gene (NPC1L1) Polymorphisms and Methods of Use Thereof” (SCHERING CORPORATION, priority 2005, published 2009).

Molecular target: T1, NPC1L1 (Homo sapiens, UniProt Q9UHC9)
T1 construct: from tissue; host or cells: small intestine of hypercholesterolemic patients (in vivo, clinical trial)
T1 sequence (Q9UHC9 22-1332 isoform Q9UHC9-2 limits assumed): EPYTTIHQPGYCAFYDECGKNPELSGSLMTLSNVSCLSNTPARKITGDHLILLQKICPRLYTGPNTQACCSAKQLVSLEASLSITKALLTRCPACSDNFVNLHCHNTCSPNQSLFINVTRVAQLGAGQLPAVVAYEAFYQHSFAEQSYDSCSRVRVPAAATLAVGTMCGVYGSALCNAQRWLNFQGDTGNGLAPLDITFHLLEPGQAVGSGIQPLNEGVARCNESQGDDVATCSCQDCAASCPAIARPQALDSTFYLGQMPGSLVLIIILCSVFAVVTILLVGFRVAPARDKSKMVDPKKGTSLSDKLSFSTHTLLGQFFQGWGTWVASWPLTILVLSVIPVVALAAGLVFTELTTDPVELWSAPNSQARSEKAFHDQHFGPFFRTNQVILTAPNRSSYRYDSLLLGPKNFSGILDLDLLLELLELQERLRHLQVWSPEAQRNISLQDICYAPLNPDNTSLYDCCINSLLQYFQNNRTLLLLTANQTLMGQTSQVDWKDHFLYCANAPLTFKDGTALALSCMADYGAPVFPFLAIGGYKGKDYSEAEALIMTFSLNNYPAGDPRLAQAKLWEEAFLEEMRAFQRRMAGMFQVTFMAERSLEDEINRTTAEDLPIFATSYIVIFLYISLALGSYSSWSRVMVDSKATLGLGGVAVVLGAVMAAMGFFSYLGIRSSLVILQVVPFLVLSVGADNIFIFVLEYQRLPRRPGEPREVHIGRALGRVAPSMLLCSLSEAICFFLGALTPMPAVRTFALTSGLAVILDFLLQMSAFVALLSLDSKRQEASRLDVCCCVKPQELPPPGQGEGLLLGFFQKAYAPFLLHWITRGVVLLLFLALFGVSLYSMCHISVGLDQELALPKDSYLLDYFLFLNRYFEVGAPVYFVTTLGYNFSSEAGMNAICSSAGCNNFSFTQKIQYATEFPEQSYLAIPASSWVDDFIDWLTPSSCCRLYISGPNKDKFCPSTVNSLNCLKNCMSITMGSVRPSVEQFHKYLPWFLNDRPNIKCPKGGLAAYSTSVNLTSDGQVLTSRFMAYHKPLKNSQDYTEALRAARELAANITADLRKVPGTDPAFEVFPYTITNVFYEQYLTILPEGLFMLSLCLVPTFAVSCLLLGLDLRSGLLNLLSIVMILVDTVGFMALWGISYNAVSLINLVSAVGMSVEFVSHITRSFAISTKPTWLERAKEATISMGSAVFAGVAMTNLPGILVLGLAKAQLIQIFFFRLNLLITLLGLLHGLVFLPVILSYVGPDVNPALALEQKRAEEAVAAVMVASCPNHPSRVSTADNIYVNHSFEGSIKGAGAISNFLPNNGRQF
Test: EASE trial: LDL-C response to six weeks of ezetimibe 10 mg/day added to stable statin therapy, analysed by NPC1L1 genotype/haplotype
Type: in vivo
Details: for Least-Squares (adjusted) Mean (Stderr), percent change in LDL-C: extreme responders; for Least-Squares adjusted Mean (n/Std error), percent change from baseline LDL-C: EASE cohort N = 1195; for Least-Squares (adjusted) Mean (n,/Stderr), percent change in LDL-C: Extreme responders (<10th or >90th percentile) N = 239
Experimental: Genotyping assays were developed for a number of novel and known common variants with minor allele frequencies greater than 4% that were identified in Example 1. Genetic association analysis was performed with these SNPs in a clinical trial cohort (EASE), described below, to assess whether DNA sequence variants in NPC1L1 are associated with changes in the levels of a variety of plasma cholesterol components in hypercholesterolemia patients in response to pharmacotherapy with ezetimibe and statins as compared to patients treated with a statin and placebo.
To study whether variations in NPC1L1 were associated with response to ezetimibe added to statin therapy, a study population was derived from the Ezetimibe Add-On to Statin for Effectiveness (EASE) Trial (Pearson et al., (2005) Mayo Clinic Proceedings, In Press). The EASE trial was a community-based, randomized, double-blind, placebo controlled study to evaluate the effects of six weeks of ezetimibe, 10 mg/day, added on to a stable regimen of statin therapy, on lipid biomarkers in hypercholesterolemic patients whose LDL-C levels exceeded the National Cholesterol Education Program (NCEP) Adult Treatment Panel (ATP) m guidelines for their coronary heart disease (CHD) risk category. At enrollment, patients taking a stable dose of statin (any dose, any brand) and following a NCEP Step 1 diet or similar cholesterol-lowering diet for at least six weeks prior to entry into the study were randomized to either the ezetimibe (n=2020, 2009 received the treatment) or placebo (n=1010, 1009 received the treatment) arm. From the ezetimibe group, 1208 patients provided consent for genomic analysis and were included in this study. A series of clinical measures corresponding to various cardiovascular risk factors were measured from samples obtained from all trial participants and are summarized by Pearson et al., supra.
Twenty one SNPs from Table 4 (Example 1) were converted to valid genotyping assays, thirteen of which had allele frequencies greater than 2% in all EASE sub-populations. TaqMan Allelic Discrimination assays (Livak, (1999) Genet. Anal. 14:143-49) were performed using Primer Express software and the Assay-by-Design service offered by Applied Biosystems (Foster City, Calif.). […] All probe/primer sets were designed to function using universal reaction and cycling conditions.
The twenty one selected SNPs were genotyped in 1,208 individuals participating in the ezetimibe+statin treatment arm of the EASE trial. A series of clinical measures corresponding to various cardiovascular risk factors were taken on all trial participants (Tables 4a-d). Thirteen selected SNPs genotyped in the EASE cohort were confirmed as having common allele frequencies in this cohort, i.e., an allele frequency of greater than 2% in all EASE sub-populations. […] This could reflect the increased power in the larger EASE cohort to make such detections (see Table 5).
The mean (SD) for total plasma cholesterol, HDL cholesterol (HDL-C), and LDL cholesterol (LDL-C) was 211.0 (34.9), 48.6 (11.5), and 129.1 (30.0) mg/dL, respectively (Pearson et al., supra). […] The distribution of these measurements was similar in the subjects enrolled in this genetic study (Pearson et al., supra). […] No significant associations were found between these response predictive variables and any of the tagging SNPs.
Genetic association analysis was carried out in the EASE cohort with LDL-C response to ezetimibe treatment considered as the primary outcome variable. Individual SNPs, haplotypes, and haplotype combinations were the principal explanatory variables used in the analyses. General linear models were used to estimate the effects of genotypes, haplotypes, and diplotypes on the LDL-C response phenotype. Baseline LDL-C levels, sex, age, and race were investigated to determine if they gave rise to significant effects. Baseline LDL-C levels associated with significant effects in all models and were therefore included in all analyses. […]

[1] = Caucasian ethnic subgroup, g.-18C > A C/A

O=C1[C@H](CC[C@H](O)c2ccc(F)cc2)[C@@H](c2ccc(O)cc2)N1c1ccc(F)cc1 [ezetimibe, 1-(4-fluorophenyl)-3(R)-[3-(4-fluorophenyl)-3(S)-hydroxypropyl]-4(S)-(4-hydroxyphenyl)-2-azetidinone]
Least-Squares (adjusted) Mean (Stderr), percent change in LDL-C [1]: −32.81 (3.83) % | Least-Squares (adjusted) Mean (Stderr), percent change in LDL-C (Caucasian ethnic subgroup, g.1679C > G C/G): −26.61 (3.58) % | Least-Squares (adjusted) Mean (Stderr), percent change in LDL-C (Caucasian ethnic subgroup, g.1679C > G G/G): −39.00 (10.81) % | Least-Squares adjusted Mean (Std error), percent change from baseline LDL-C (Caucasian ethnic subgroup, g.-18C > A A/A): −27.19 (3.49) % | Least-Squares adjusted Mean (Std error), percent change from baseline LDL-C [1]: −28.22 (0.96) % | Least-Squares adjusted Mean (Std error), percent change from baseline LDL-C (Caucasian ethnic subgroup, g.-18C > A C/C): −24.34 (0.60) % | Odds Ratio, extreme responder association with SNP (Caucasian ethnic subgroup, g.-18C > A, 95% CI 1.27 to 4.39): 2.36 | Least-Squares adjusted Mean (Std error), percent change from baseline LDL-C (Caucasian ethnic subgroup, g.-133A > G A/A): −26.59 (0.73) % | Least-Squares adjusted Mean (Std error), percent change from baseline LDL-C (Caucasian ethnic subgroup, g.-133A > G A/G): −24.78 (0.77) % | Least-Squares adjusted Mean (Std error), percent change from baseline LDL-C (Caucasian ethnic subgroup, g.-133A > G G/G): −22.80 (1.72) % | Least-Squares adjusted Mean (Std error), percent change from baseline LDL-C (Caucasian ethnic subgroup, g.1679C > G (L272L) C/C): −24.66 (0.65) % | Least-Squares adjusted Mean (Std error), percent change from baseline LDL-C (Caucasian ethnic subgroup, g.1679C > G (L272L) C/G): −26.58 (0.85) % | Least-Squares adjusted Mean (Std error), percent change from baseline LDL-C (Caucasian ethnic subgroup, g.1679C > G (L272L) G/G): −28.18 (2.51) % | Least-Squares adjusted Mean (Std error), percent change from baseline LDL-C (Caucasian ethnic subgroup, g.19224G > A A/A): −31.64 (6.56) % | Least-Squares adjusted Mean (Std error), percent change from baseline LDL-C (Caucasian ethnic subgroup, g.19224G > A G/A): −24.81 (1.31) % | Least-Squares adjusted Mean (Std error), percent change from baseline LDL-C (Caucasian ethnic subgroup, g.19224G > A G/G): −25.56 (0.55) % | Least-Squares adjusted Mean (Std error), percent change from baseline LDL-C (Caucasian ethnic subgroup, g.19259T > C C/C): −24.95 (2.01) % | Least-Squares adjusted Mean (Std error), percent change from baseline LDL-C (Caucasian ethnic subgroup, g.19259T > C T/C): −25.61 (0.84) % | Least-Squares adjusted Mean (Std error), percent change from baseline LDL-C (Caucasian ethnic subgroup, g.19259T > C T/T): −25.44 (0.67) % | Least-Squares adjusted Mean (Std error), percent change from baseline LDL-C (Caucasian ethnic subgroup, g.28650A > G A/A): −24.63 (0.64) % | Least-Squares adjusted Mean (Std error), percent change from baseline LDL-C (Caucasian ethnic subgroup, g.28650A > G A/G): −26.90 (0.87) % | Least-Squares adjusted Mean (Std error), percent change from baseline LDL-C (Caucasian ethnic subgroup, g.28650A > G G/G): −26.52 (2.57) % | Least-Squares adjusted Mean (n/Std error), percent change from baseline LDL-C (g.-18C > A A/A): −27.27 (22/3.61) % | Least-Squares adjusted Mean (n/Std error), percent change from baseline LDL-C (g.-18C > A C/A): −27.85 (298/0.98) % | Least-Squares adjusted Mean (n/Std error), percent change from baseline LDL-C (g.-18C > A C/C): −24.16 (875/0.57) % | Least-Squares adjusted Mean (n/Std error), percent change from baseline LDL-C (g.-133A > G A/A): −25.92 (629/0.68) % | Least-Squares adjusted Mean (n/Std error), percent change from baseline LDL-C (g.-133A > G A/G): −24.58 (477/0.78) % | Least-Squares adjusted Mean (n/Std error), percent change from baseline LDL-C (g.-133A > G G/G): −22.56 (89/1.80) % | Least-Squares adjusted Mean (n/Std error), percent change from baseline LDL-C (g.1679C > G C/C): −24.50 (723/0.63) % | Least-Squares adjusted Mean (n/Std error), percent change from baseline LDL-C (g.1679C > G C/G): −25.77 (417/0.83) % | Least-Squares adjusted Mean (n/Std error), percent change from baseline LDL-C (g.1679C > G G/G): −28.77 (55/2.29) % | Least-Squares adjusted Mean (n/Std error), percent change from baseline LDL-C (g.19224G > A A/A): −31.64 (/6.94) % | Least-Squares adjusted Mean (n/Std error), percent change from baseline LDL-C (g.19224G > A G/A): −25.07 (/1.34) % | Least-Squares adjusted Mean (n/Std error), percent change from baseline LDL-C (g.19224G > A G/G): −25.11 (/0.53) % | Least-Squares adjusted Mean (n/Std error), percent change from baseline LDL-C (g.19259T > C C/C): −26.38 (/1.98) % | Least-Squares adjusted Mean (n/Std error), percent change from baseline LDL-C (g.19259T > C T/C): −25.01 (/0.82) % | Least-Squares adjusted Mean (n/Std error), percent change from baseline LDL-C (g.19259T > C T/T): −25.07 (/0.64) % | Least-Squares adjusted Mean (n/Std error), percent change from baseline LDL-C (g.28650A > G A/A): −24.40 (/0.60) % | Least-Squares adjusted Mean (n/Std error), percent change from baseline LDL-C (g.28650A > G A/G): −26.50 (/0.89) % | Least-Squares adjusted Mean (n/Std error), percent change from baseline LDL-C (g.28650A > G G/G): −27.19 (/2.65) % | mean LDL-C change from baseline (EASE cohort, heterozygous for the minor allele of g.−18C>A (298/1195)): 27.8% | mean LDL-C change from baseline (EASE cohort, homozygous for the common allele of g.−18C>A (n=875/1195)): 24.2% | mean change in LDL-C (EASE cohort, homozygous for the minor allele of g.−18C>A (n=22/1195)): 27.3% | Least-Squares (adjusted) Mean (n,/Stderr), percent change in LDL-C (g.-18C > A C/A): −33.98 (62/4.05) % | Least-Squares (adjusted) Mean (n,/Stderr), percent change in LDL-C (g.-18C > A C/C): −16.85 (177/2.40) %
